Experimental data as given in patent US9416162B2, “Peptides having reduced toxicity that stimulate cholesterol efflux” (The Regents of the University of California, priority 2013, dated 2016).
Non-standard residues stand in square brackets, D forms with d. No end group written: not given here. Cit = NC(=O)NCCC[C@H](N)C(=O)O

Tests used:
[1] = system: apoE−/− mice; experiment: Atherosclerosis in apoE−/− mice on high-fat western diet, whole aorta Oil-Red O staining; type: in vivo, mouse
Protocol: Male apoE^−/− mice at 8 weeks of age were fed a high-fat western diet for 14 weeks. Mice were subsequently randomized to either a control group to receive IP injection of vehicle alone or lipid-free peptide (30 mg/kg) at 48 hour intervals for 6 weeks. […] The extent of whole aorta covered with fatty lesions is shown, determined by Oil-Red O staining. Values are means±SD, n=10 mice per group.
CS6253, another synthesis batch of T5237-4, was administered IP at 10 mg/kg for 10 weeks showing again reduction of substantial atherosclerosis in apoE^−/− mice (FIG. 36). Male apoE^−/− mice at 8 weeks of age were fed a high-fat western diet for 14 weeks. Mice were subsequently randomized to either a control group to receive IP injection of vehicle alone or lipid-free CS6253 (10 mg/kg) at 48 hour intervals for 10 weeks while the mice remained on high-fat western diet. The extent of whole aorta covered with fatty lesions is shown, determined by Oil-Red O staining. Values are means±SD, n=10 mice per group.
CS6253 administered SC also reduce substantial atherosclerosis in apoE KO mice. Male apoE−/− mice at 8 weeks of age were fed a high-fat western diet for 14 weeks (FIG. 37). One group was terminated before treatment start as baseline control. Mice were subsequently randomized to one of 3 arms to receive subcutaneous (SC) injection alternate days for 6 weeks; vehicle alone, CS6253 30 mg/kg or CS6253 60 mg/kg. During the first 4 treatment weeks the mice remained on high-fat western diet while during the last two weeks of treatment they were switched to chow diet. The extent of whole aorta covered with fatty lesions is shown, determined by Oil-Red O staining. Values are means±SD, n=10 mice per group.

[2] = system: apoE−/− mice; experiment: Macrophage reverse cholesterol transport (RCT) to feces in vivo; design: species or system mouse; details: male apoE−/− mice, IP lipid-free peptide 10 or 30 mg/kg
Protocol: J774 macrophage foam-cells (acetylated LDL, 100 μg/ml) labeled with [^3H]cholesterol were injected IP into male, atherosclerotic apoE deficient (apoE^−/−) mice 5 months of age together with vehicle alone (PBS) or with lipid-free CS6253 peptide at doses of 10 or 30 mg/kg. Feces were collected at 24 h for assessment of [^3H]sterol. Values are means±SD, n=5 mice per group.

[3] = system: HDL in human plasma; experiment: preβ HDL formation in human plasma, 2D NDGGE and western blot
Protocol: To test whether CS6253 exerts anti-atherogenic effects in a biological milieu, human plasma was exposed (5 min) to lipid-free peptide. Interactions of CS6253 with HDL and activity of plasma to stimulate cholesterol efflux was assessed, using J774 macrophages labeled with [^3H]cholesterol. Panel A—Cholesterol efflux activity of plasma treated with lipid-free peptides. Human plasma was incubated with 300 μg/ml peptides for 5 minutes (4° C.), diluted to 1% in serum-free RPMI-1640 culture medium and immediately added to [^3H]cholesterol-labeled J774 cells. […] Panel B—Induction of preβ HDL upon treatment of human plasma with CS6253. Plasma was exposed to a small amount of peptide relative to endogenous apoA-I (1:10 mole ratio, respectively) and formation of preβ HDL assessed by 2D non-denaturing gradient gel electrophoresis (NDGGE) and western blot analysis. […] This is consistent with no peptide being associated with the preβ HDL fraction, indicating the particles were authentic preβ particles composed on endogenous apoA-I.

[4] = molecular target: T1, ABCA1 (Mus musculus, UniProt P41233); experiment: ABCA1 protein stabilization, western blot of J774 whole-cell lysates; type: cell-based; details: J774 cells after cAMP treatment, continued presence of peptide
T1 construct: treated (18 h) with a cAMP analog to induce ABCA1 protein expression; endogenous in cells; host or cells: J774 macrophages
Protocol: In some embodiments, the stabilization of ABCA is measured by direct measurement of ABCA (e.g., ABCA protein, or nucleic acid) using a cell based assay. Cell based assays can be performed in any cells in which ABCA is expressed (e.g., J774 macrophages), including cells which have been transfected with ABCA (e.g. HeLa cells). Any cell type can be used. For example, J774 macrophages can be used to assess relative ABCA1 protein levels in the presence and absence of polypeptides of the invention. The cells are first contacted with a compound that will induce ABCA (e.g., cAMP or a cAMP analogue such as, 8-bromo-cAMP) to upregulate ABCA (e.g., ABCA1) expression, then exposed to […] polypeptides of the invention in the absence of the cAMP stimulus to evaluate whether ABCA1 protein was stabilized or degraded. Relative levels of ABCA1 protein can be assessed using any means known in the art including, e.g., immunoblot analysis of cell membranes (Oram et al., J. Biol. Chem., 278:52379-52385 (2003)) or hybridization of nucleic acid probes to ABCA mRNA.
J774 macrophages were used for experiments. Panel A—Cells were labeled (48 h) with 3H cholesterol and treated with (right bars) and without (left bars) a cAMP analog to modulate ABCA1 expression. […]

T1 sequence (P41233 whole entry): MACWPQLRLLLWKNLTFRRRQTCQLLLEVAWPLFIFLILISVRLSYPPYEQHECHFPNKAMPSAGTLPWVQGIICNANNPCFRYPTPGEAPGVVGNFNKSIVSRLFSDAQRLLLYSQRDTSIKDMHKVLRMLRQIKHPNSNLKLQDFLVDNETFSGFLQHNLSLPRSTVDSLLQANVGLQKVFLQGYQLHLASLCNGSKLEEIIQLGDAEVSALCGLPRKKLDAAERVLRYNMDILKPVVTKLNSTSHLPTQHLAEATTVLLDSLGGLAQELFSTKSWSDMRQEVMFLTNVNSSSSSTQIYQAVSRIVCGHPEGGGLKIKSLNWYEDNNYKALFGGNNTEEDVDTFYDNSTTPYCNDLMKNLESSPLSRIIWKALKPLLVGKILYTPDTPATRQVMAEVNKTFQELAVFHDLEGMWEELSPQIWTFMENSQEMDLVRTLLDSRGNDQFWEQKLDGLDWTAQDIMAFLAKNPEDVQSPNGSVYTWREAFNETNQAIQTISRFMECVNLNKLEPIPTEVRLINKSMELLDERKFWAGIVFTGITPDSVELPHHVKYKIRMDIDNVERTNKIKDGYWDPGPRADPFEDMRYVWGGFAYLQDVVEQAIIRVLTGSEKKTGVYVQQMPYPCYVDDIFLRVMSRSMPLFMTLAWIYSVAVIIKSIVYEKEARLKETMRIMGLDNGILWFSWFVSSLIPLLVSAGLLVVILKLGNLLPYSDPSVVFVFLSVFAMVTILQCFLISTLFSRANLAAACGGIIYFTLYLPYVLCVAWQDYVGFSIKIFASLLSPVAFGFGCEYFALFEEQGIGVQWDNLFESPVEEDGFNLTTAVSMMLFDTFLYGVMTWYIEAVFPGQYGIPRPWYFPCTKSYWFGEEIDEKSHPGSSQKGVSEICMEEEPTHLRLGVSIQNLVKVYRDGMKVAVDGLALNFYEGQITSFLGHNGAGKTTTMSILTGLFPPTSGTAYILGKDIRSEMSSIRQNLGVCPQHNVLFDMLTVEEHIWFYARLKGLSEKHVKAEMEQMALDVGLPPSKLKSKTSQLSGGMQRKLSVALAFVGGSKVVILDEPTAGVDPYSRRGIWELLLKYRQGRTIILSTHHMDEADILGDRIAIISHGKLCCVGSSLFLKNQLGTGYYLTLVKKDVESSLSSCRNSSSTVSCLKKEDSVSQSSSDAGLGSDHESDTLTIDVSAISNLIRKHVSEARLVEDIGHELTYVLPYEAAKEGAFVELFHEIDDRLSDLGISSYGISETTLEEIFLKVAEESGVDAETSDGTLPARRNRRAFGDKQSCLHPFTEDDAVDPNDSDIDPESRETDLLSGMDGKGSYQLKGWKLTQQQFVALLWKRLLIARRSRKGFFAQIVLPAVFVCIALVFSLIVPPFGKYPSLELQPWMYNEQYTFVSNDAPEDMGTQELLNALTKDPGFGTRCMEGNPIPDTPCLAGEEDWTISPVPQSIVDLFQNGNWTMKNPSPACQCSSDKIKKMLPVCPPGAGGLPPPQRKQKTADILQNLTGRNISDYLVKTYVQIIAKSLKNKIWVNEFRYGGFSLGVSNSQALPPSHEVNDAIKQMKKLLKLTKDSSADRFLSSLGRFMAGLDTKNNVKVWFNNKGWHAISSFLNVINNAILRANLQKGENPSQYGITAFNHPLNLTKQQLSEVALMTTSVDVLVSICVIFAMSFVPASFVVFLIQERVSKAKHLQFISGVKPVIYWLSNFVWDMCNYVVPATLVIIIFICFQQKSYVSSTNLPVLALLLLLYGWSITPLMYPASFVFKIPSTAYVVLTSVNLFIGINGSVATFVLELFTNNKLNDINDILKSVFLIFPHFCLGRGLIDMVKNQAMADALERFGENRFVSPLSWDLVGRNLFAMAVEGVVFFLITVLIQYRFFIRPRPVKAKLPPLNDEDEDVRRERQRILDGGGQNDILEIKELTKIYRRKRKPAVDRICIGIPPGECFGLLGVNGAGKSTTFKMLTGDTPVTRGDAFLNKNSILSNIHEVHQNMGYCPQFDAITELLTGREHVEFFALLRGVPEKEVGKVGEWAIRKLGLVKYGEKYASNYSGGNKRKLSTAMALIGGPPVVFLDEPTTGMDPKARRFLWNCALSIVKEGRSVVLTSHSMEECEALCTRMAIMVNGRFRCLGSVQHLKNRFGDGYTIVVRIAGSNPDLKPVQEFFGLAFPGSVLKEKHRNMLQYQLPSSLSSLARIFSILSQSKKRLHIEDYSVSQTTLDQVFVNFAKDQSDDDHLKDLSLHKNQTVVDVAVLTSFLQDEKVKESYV

“EVCitSKLEEWLAALCitELAEELLARLKS (SEQ ID NO:2) (EV[Cit]SKLEEWLAAL[Cit]ELAEELLARLKS) [CS6253, citrulline form of LeuATI-5261, R3,14→Citrulline, 26-mer]” was tested, and the “extent of whole aorta covered with fatty lesions” value (“extent of whole aorta covered” below) ([1]; IP 10 mg/kg at 48 hour intervals for 10 weeks) was “reduced atherosclerosis”, the “extent of whole aorta covered” value ([1]; IP 30 mg/kg at 48 hour intervals for 6 weeks) was “reduced atherosclerosis” and the “extent of whole aorta covered” value ([1]; SC 30 mg/kg or 60 mg/kg alternate days for 6 weeks) was “reduced atherosclerosis”. For the same substance, the “macrophage RCT, [3H]sterol in feces at 24 h” value [2] was “stimulated macrophage RCT”, the “association of peptide with HDL species in plasma” value ([3]; antibody against CS6253) was “associated with α-HDL” and the “preβ HDL formation” value ([3]; peptide:endogenous apoA-I 1:10 mole ratio, apoA-I antibody) was “increase in preβ HDL”. For the same substance, the “ABCA1 protein levels (stabilization)” value [4] was “maintained at high levels”.
